# From patent US6610299B1, “Glycosyl-etoposide prodrugs, a process for preparation thereof and the use thereof in combination with functionalized tumor-specific enzyme conjugates” (Aventis Pharma Deutschland GmbH, priority 1989, dated 2003)
# What was measured:
# alpha-glucosidase = conditions: in vitro, enzyme alpha-glucosidase
# [1] = tested on: tumor-specific antibody-glucosidase conjugate; conditions: in vitro
# human β-glucuronidase = target: T1, human β-glucuronidase (Homo sapiens, UniProt P08236); experiment: prodrug cleavage by β-glucuronidase (human, recombinant), HPLC; type: biochemical
# T1 sequence (P08236 23-651): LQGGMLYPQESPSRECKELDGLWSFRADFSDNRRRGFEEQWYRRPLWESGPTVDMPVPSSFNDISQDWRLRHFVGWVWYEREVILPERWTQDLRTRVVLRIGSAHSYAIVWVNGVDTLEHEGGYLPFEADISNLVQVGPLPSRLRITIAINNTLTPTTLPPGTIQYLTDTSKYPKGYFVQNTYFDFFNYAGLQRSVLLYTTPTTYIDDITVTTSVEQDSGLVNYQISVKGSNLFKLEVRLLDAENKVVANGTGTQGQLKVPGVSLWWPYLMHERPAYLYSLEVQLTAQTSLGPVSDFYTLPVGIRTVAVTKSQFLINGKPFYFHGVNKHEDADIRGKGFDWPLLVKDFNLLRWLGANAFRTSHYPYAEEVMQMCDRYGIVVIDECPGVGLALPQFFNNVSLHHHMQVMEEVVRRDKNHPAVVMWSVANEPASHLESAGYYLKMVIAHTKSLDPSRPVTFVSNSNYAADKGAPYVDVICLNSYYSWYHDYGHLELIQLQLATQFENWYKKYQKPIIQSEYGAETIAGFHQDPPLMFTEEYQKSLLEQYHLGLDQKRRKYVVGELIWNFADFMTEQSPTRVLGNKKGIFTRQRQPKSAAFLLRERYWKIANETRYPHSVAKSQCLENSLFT
# Description: (§1) It was shown in Example 17 that the β-glucuronidase portion of the fusion protein is able, like the native human enzyme, to cleave the β-glucuronide of 4-methylumbelliferol. In the investigations which are described hereinafter, the substrate used for the enzymatic cleavage was a β-glucuronide, linked via a spacer group, of the cytostatic daunomycin. The specific procedure for these investigations was as follows:
# (§2) 4 mg of the compound N-(4-hydroxy-3-nitrobenzyloxy-carbonyl)daunorubicin β-D-glucuronide (prodrug), which is described in French Patent Application (No. d'Enregistrement National: 9105326) were dissolved in 1 ml of 20 mM phosphate buffer, pH 7.2. 35 μl of the fusion protein (Example 21) or of human β-glucuronidase (total concentration in each case 6.5 U/ml; 1 U=cleavage of 1 μmol of 4-methyl-umbelliferol/min at 37° C.) were pipetted into 5 μl portions of this substrate solution and incubated in the dark at 37° C. Samples (5 μl) of the incubation mixture were removed after various times and immediately analyzed by high pressure liquid chromatography under the following conditions:
# (§3) Nucleosil 100 RP 18, 5 μm particle diameter, 125×4.6 mm
# (§4) Gradient of solution A (100% acetonitrile) and solution B (20 mM phosphate buffer pH.3.0)
# (§5) Detection: fluorescence, excitation 495 nm, emission […]
# (§6) Data analysis: Beckman System Gold Software
# [2] = target: T2, 431/26 hum VH huβGlc 1H fusion protein (Homo sapiens, UniProt P01860+P08236); experiment: prodrug cleavage by β-glucuronidase (fusion protein), HPLC; type: biochemical
# T2 construct: made in house; host or cells: BHK cells
# T2 sequence (P01860+P08236 fused): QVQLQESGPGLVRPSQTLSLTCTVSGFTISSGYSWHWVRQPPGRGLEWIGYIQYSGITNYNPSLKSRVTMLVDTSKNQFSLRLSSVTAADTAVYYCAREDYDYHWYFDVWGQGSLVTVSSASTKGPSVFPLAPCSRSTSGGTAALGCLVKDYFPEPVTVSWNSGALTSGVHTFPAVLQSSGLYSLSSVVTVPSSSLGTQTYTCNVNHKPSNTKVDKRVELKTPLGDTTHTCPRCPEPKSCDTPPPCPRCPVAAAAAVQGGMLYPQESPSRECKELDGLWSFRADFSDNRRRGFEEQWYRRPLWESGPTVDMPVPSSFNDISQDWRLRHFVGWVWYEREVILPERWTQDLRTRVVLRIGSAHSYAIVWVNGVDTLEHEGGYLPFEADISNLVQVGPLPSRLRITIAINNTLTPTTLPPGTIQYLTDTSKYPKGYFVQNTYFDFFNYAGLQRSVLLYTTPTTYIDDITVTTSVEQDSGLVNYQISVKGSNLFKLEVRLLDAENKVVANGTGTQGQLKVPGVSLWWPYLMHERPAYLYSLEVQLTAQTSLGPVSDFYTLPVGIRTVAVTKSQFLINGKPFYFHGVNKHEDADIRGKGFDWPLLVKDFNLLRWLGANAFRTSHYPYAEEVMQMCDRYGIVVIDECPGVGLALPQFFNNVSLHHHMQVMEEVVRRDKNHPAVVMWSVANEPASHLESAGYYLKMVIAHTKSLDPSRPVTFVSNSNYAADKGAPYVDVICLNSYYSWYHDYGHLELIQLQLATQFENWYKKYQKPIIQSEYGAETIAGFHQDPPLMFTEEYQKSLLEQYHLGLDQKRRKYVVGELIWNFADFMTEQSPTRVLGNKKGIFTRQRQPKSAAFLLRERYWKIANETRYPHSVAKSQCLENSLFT
# Description: as §1, §2, §3, §4, §5, §6
molecule,measurement,setting,value
4′-O-alpha-D-glucopyranosyl-etoposide,cleavage into etoposide and D-glucose,alpha-glucosidase,can be cleaved in vitro into etoposide and D-glucose
same,cleavage into etoposide and D-glucose,[1],can be cleaved in vitro into etoposide and D-glucose
"COc1cccc2c1C(=O)c1c(O)c3c(c(O)c1C2=O)C[C@@](O)(C(C)=O)C[C@@H]3O[C@H]1C[C@H](NC(=O)OCc2ccc(O[C@@H]3O[C@H](C(=O)O)[C@@H](O)[C@H](O)[C@H]3O)c([N+](=O)[O-])c2)[C@H](O)[C@H](C)O1 [Prodrug, N-(4-hydroxy-3-nitrobenzyloxy-carbonyl)daunorubicin β-D-glucuronide]",DNM area % (liberated daunomycin),human β-glucuronidase; t 0 min,0.8 area %
same,Prodrug area %,human β-glucuronidase; t 0 min,99.2 area %
same,DNM area % (liberated daunomycin),human β-glucuronidase; t 57 min,64.0 area %
same,Prodrug area %,human β-glucuronidase; t 57 min,36.0 area %
same,DNM area % (liberated daunomycin),human β-glucuronidase; t 130 min,89.7 area %
same,Prodrug area %,human β-glucuronidase; t 130 min,10.3 area %
same,DNM area % (liberated daunomycin),human β-glucuronidase; t 227 min,90.7 area %
same,Prodrug area %,human β-glucuronidase; t 227 min,9.3 area %
same,DNM area % (liberated daunomycin),[2]; t 0 min,1.1 area %
same,Prodrug area %,[2]; t 0 min,98.9 area %
same,DNM area % (liberated daunomycin),[2]; t 50 min,18.9 area %
same,Prodrug area %,[2]; t 50 min,81.1 area %
same,DNM area % (liberated daunomycin),[2]; t 135 min,48.3 area %
same,Prodrug area %,[2]; t 135 min,51.7 area %
same,DNM area % (liberated daunomycin),[2]; t 190 min,67.0 area %
same,Prodrug area %,[2]; t 190 min,33.0 area %
same,DNM area % (liberated daunomycin),[2]; t 247 min,78.0 area %
same,Prodrug area %,[2]; t 247 min,22.0 area %
same,DNM area % (liberated daunomycin),[2]; t 317 min,87.6 area %
same,Prodrug area %,[2]; t 317 min,12.4 area %
